Experimental data as given in patent US20260335294A1, “TREATING CONGENITAL DISORDERS OF GLYCOSYLATION” (Mayo Foundation for Medical Education and Research, priority 2022, published 2026).

Legend:
PMM2-CDG patients [1] = test: Modified Brief Ataxia Rating Scale (BARS) in patients on epalrestat; format: in vivo, human
Description: (§1) The primary objective of the study was to assess the efficacy and safety of epalrestat treatment in 3 PMM2-CDG pediatric subjects prior to a planned Phase III clinical trial (Oral epalrestat therapy in Pediatric Subjects with PMM2-CDG, NCT04925960). The secondary objective was to assess the ability of epalrestat to improve clinically relevant aspects of PMM2-CDG such as increased urine polyols (sorbitol, mannitol), abnormal glycosylation (carbohydrate deficient transferrin), abnormal coagulation (ATIII=antithrombin III), impaired liver function (ALT=Alanine Transaminase, AST=Aspartate Transaminase), neurologic function (Brief Ataxia Rating Scale=BARS), severity of phenotype (Nijmegen Pediatric CDG Rating Scale=NPCRS). The ability of epalrestat to inhibit polyol production was monitored by evaluating urine polyol levels (sorbitol, mannitol), which are elevated in PMM2-CDG. Next, carbohydrate deficient transferrin, which is abnormal in PMM2-CDG, was evaluated in order to assess improvement of glycosylation following epalrestat treatment. CDT mono-oligo/dioligo ratio and a-oligo/dioligo ratio are used to evaluate glycosylation abnormalities. Transferrin normally occurs with two glycan chains (di-oligo). In the case of glycosylation abnormalities, glycan chains are missing (A-oligo transferrin has no glycan chains, mono-oligo has one glycan chain, di-oligo has two glycan chains). The higher ratio of a-oligo/di-oligo and mono-oligo/di-oligo indicate glycosylation abnormalities are present. Therefore, improvement in a-oligo/di-oligo and mono-oligo/di-oligo ratios can be used to monitor improvement or worsening of glycosylation status. Changes in the liver enzymes AST, ALT, which are frequently elevated in PMM2-CDG, were monitored both as part of a safety study and as part of monitoring clinical improvement in coagulation. Neurologic improvement was assessed by modified BARS scores in 2 patients (3rd patient was not eligible for the test due to age at the start of the trial). NPCRS was assessed at every visit to assess changes in the severity of the patients' phenotype. Additionally, the frequency of adverse events, changes in vital signs, complete blood count, and changes in BMI were monitored.
(§2) Two patients were started on epalrestat on single patient investigational new drug (IND) (P5 IRB: 19-010017; IND #145262; P6 Protocol PMM2-CDG-001/A). Epalrestat was initiated on the parents' own initiative in the third patient (P7). Two patients were in their second year of epalrestat treatment, while the third, was in the 3rd year of treatment. Physical, neurological, and biochemical examinations were performed in 3 PMM2-CDG patients at baseline, and at every three months after the start of the epalrestat treatment. Patients underwent NPCRS phenotype severity assessment and biological sampling at every visit. Epalrestat (Ono Pharmaceuticals, Osaka, Japan) was taken orally 3 times per day (TID) before meals in a divided dose, with dosage escalation throughout the treatment. The pharmacological profile of epalrestat was as described elsewhere (Ligezka et al, Ann. Neurol., 90(6):887-900 (2021)). The starting dosage in P5 and P6 was 0.8 mg/kg/day, while P7 was started on 0.5 mg/kg/day due to their young age. P7 dosage was increased to 0.8 mg/day after a month, once safety was established. Blood and urine samples were collected routinely. Urine polyols, carbohydrate deficient transferrin (CDT), anti-thrombin III (ATIII), liver enzymes (ALT, AST), and complete blood count (CBC) were performed. Modified Brief Ataxia Rating Scale was used to assess ataxia in the 2 patients (P5, P6; P7 was not eligible for the test due to age). The modified BARS scale included Archimedes spiral test, but not the abnormalities of the ocular pursuit system and the scale range was 0-54. Goal attainment scale (GAS) was administered as described per study protocol (ClinicalTrials.gov Identifier: NCT04199000). […]

PMM = conditions: patient fibroblasts; cited from earlier work
pmm2 mutant zebrafish = test: Zebrabox motility assay; format: in vivo
Method: Zebrabox Motility Assay Progeny of a pmm2^sa1050/+ (pmm2^m/+) mating were collected and raised in the light following standard protocols. […] Embryos were also fed a small number of rotifers daily once behavioral readings were completed. Locomotor activity (swim paths, speeds) was monitored for ten-minute intervals from 6-10 dpf using the Zebrabox System (ViewPoint Inc., Toronto, Canada). Data was analyzed and graphed using GraphPad Prism.
Then, both wt and pmm2 mutant zebrafish were treated with 20 µM daily epalrestat, which increased the distance swam and the number of swim events initiated in the pmm2 mutant zebrafish (FIG. 5 C,D). The improvement was most significant at 6 dpf and 7 dpf (FIG. 5 C,D).

PMM2-CDG patients [2] = test: Nijmegen Pediatric CDG Rating Scale (NPCRS) in patients on epalrestat; format: in vivo, human
Description: as §1, §2

PMM2-CDG patients [3] = test: Anti-thrombin III (ATIII) in patients on epalrestat; format: in vivo, human; conditions: for AT III: C: 0.80-1.30
Description: as §1
as §2, with “routinely.” for “routinely. Urine polyols, carbohydrate deficient transferrin (CDT), anti-thrombin III (ATIII), liver enzymes (ALT, AST), and complete blood count (CBC) were performed. Modified Brief Ataxia Rating Scale was used to assess ataxia in the 2 patients (P5, P6; P7 was not eligible for the test due to age). The modified BARS scale included Archimedes spiral test, but not the abnormalities of the ocular pursuit system and the scale range was 0-54. Goal attainment scale (GAS) was administered as described per study protocol (ClinicalTrials.gov Identifier: NCT04199000).”

[4] = 20 μM daily (printed 20 M), pmm2 mutant

**Q.** Which “Modified BARS (max 54)” value (PMM2-CDG patients [1]; P5, 12 months, 1.5 mg/kg day, baseline 39) does the source give for `CC(/C=C1\SC(=S)N(CC(=O)O)C1=O)=C\c1ccccc1` [epalrestat] here?
**A.** 29

**Q.** And the “Modified BARS (max 54)” value (PMM2-CDG patients [1]; P5, 24 months, 2 mg/kg day, baseline 39)?
**A.** 33

**Q.** What about the “Modified BARS (max 54)” value (PMM2-CDG patients [1]; P5, 28 months, 3 mg/kg day, baseline 39) of the same compound?
**A.** 30

**Q.** What about the “ataxia (modified BARS scores)” value (PMM2-CDG patients [1]; P5, P6, words) of the same compound?
**A.** improvement in ataxia

**Q.** What about the “Modified BARS (max 54)” value (PMM2-CDG patients [1]; P6, 12 months, 1.5 mg/kg day, baseline 45) of the same compound?
**A.** 29

**Q.** What about the “Modified BARS (max 54)” value (PMM2-CDG patients [1]; P6, 18 months, 3 mg/kg day, baseline 45) of the same compound?
**A.** 27

**Q.** What about the PMM enzymatic activity (PMM) of the same compound?
**A.** increase

**Q.** What about the swimming behavior (pmm2 mutant zebrafish; 10 μM daily, wt and pmm2 mutant) of the same compound?
**A.** no improvement in swimming behavior

**Q.** And the distance swam (pmm2 mutant zebrafish; [4])?
**A.** increased

**Q.** And the “number of swim events initiated” value (pmm2 mutant zebrafish; [4])?
**A.** significantly increased

**Q.** And the “swimming distance at 6 dpf and 7 dpf” value (pmm2 mutant zebrafish; 20 μM daily, pmm2 zebrafish, wt n=42-46, pmm2 n=22-51)?
**A.** significantly increased

**Q.** What about the “Total NPCRS (max 78)” value (PMM2-CDG patients [2]; P5, 12 months, 1.5 mg/kg day, baseline 24) of the same compound?
**A.** 20

**Q.** What about the “Total NPCRS (max 78)” value (PMM2-CDG patients [2]; P5, 24 months, 2 mg/kg day, baseline 24) of the same compound?
**A.** 18

**Q.** And the “Total NPCRS (max 78)” value (PMM2-CDG patients [2]; P5, 28 months, 3 mg/kg day, baseline 24)?
**A.** 18

**Q.** What about the “Phenotype severity (NPCRS)” value (PMM2-CDG patients [2]; P5, P7 improved, words) of the same compound?
**A.** improvement was noted in 2 out of 3 patients

**Q.** What about the “Total NPCRS (max 78)” value (PMM2-CDG patients [2]; P6, 12 months, 1.5 mg/kg day, baseline 19) of the same compound?
**A.** 19

**Q.** What about the “Total NPCRS (max 78)” value (PMM2-CDG patients [2]; P6, 18 months, 3 mg/kg day, baseline 19) of the same compound?
**A.** 18

**Q.** And the “Total NPCRS (max 78)” value (PMM2-CDG patients [2]; P7, 12 months, 1.5 mg/kg day, baseline 18)?
**A.** 15

**Q.** What about the “AT III” value (PMM2-CDG patients [3]; P5, 12 months, 1.5 mg/kg day, baseline 0.88) of the same compound?
**A.** 0.99 IU/mL

**Q.** And the “AT III” value (PMM2-CDG patients [3]; P5, 24 months, 2 mg/kg day, baseline 0.88)?
**A.** 0.97 IU/mL

**Q.** And the “coagulation parameters (ATIII)” value (PMM2-CDG patients [3]; P5-P7, words)?
**A.** improvement

**Q.** What about the “AT III” value (PMM2-CDG patients [3]; P6, 18 months, 3 mg/kg day, baseline 0.25) of the same compound?
**A.** 0.39 IU/mL

**Q.** What about the “AT III” value (PMM2-CDG patients [3]; P7, 12 months, 1.5 mg/kg day, baseline 0.21) of the same compound?
**A.** 0.37 IU/mL
